Values joined by “and” are separate entries in the source; they are usually repeats but may differ in a detail not shown here. Equal values may be shown once. “Also recorded” adds a separate entry of the source.
Experiments:
Osteopontin = test: Assay C: osteopontin mRNA in heart by TaqMan RT-PCR; assay type: in vivo, Male Sprague-Dawley rats; conditions: for Osteop-pontin mRNA (AU): relative to cyclophilin expression, mean ± SEM, eplerenone dose 100 mg/kg/day; for Osteopontin (AU): mRNA, individual rats, incl. rat marked * excluded from statistics
Method: The procedure of Assay B was expanded upon in a further study. […] Myocardial tissue from animals in each treatment group was examined after 7, 14, or 30 days of treatment.
Potassium chloride supplementation was added to the saline solution in order to prevent the potential hypokalemia associated with aldosterone excess.
At the time of the surgery, an Alzet 2002 osmotic minipump (Alza Corp., Palo Alto, Calif.) containing either vehicle (9% ethanol/87% propylene glycol/4% dH2O) or 1.0 mg/mL d-aldosterone (Sigma Chemical, St. Louis, Mo.) was inserted subcutaneously at the nape of the neck. Aldosterone was administered at a dose of 0.75 µg/hour. […] Animals were sacrificed from each group (n=8-13) after 7, 14, or 30 days of treatment.
The fluorogenic 5′-nuclease assay (TaqMan PCR) using Applied Biosystems' 7700 Sequence Detection System (Applied Biosystems, Foster City, Calif.) allowed for real time detection/quantitation of a specific gene by monitoring the increase in fluorescence of a gene-specific, dye-labeled oligonucleotide probe. Probes for target and reference genes were labeled at the 5′-end with a 6-carboxyfluorescein (6FAM) reporter dye and at the 3′-end with a 6-carboxy-N,N,N′,N′-tetramethylrhodamine (TAMRA) quencher dye. When the probe was annealed to the target gene, fluorescence of 6FAM was prevented by the close proximity of TAMRA. The exonuclease activity of Taq polymerase released the dyes from the oligonucleotide probe by displacing the probe from the target sequence resulting in fluorescence excitation in direct proportion to the amount of target message present. Data analysis was performed using the Sequence Detection System software from Applied Biosystems.
All primers and probes were designed using Primer Express software supplied with the 7700 Sequence Detection System and synthesized by Applied Biosystems. Standard curves using 5-fold dilutions of total RNA (from 200 ng to 320 pg) were performed to determine the efficiency of each primer/probe set in the TaqMan reaction prior to the analysis of the experimental samples. Primer/probe sets were designed from known sequences of rat genes to be analyzed. All target gene values were normalized to a reference gene, constitutively expressed cyclophilin. Primer/probe set sequences can be found in Table 8.
RNA was extracted from frozen (−80° C.) rat heart tissue using the Totally RNA Isolation Kit (Ambion, Inc., Austin, Tex.). Tissue was crushed using a stainless steel mortar and pestle, which had been chilled to −80° C. and transferred to a dounce homogenizer (Kontes, Vineland, N.J.) containing 3-10 mL cold denaturation buffer. Tissue was homogenized and transferred to a sterile, 15 mL polypropylene centrifuge tube. An equal volume of phenol:chloroform:isoamyl alcohol (25:24:1) was added, samples were shaken vigorously for 1 min, and incubated on ice for at least 15 min. Samples were centrifuged for 30 min at 10,000g. The aqueous phase was removed, 1/10 volume of a sodium acetate solution (3.0 M NaOAc pH 4.5) was added, samples were shaken or inverted for 10 seconds, and acid-phenol (premixed with isoamyl alcohol):chloroform (5:1, Ambion, Inc.) was added at an volume equivalent to the starting sample volume. Samples were shaken vigorously for 1 min, followed by a 15-min incubation on ice, and centrifuged for 30 min at 10,000 g. The aqueous phase removed and placed in a clean polypropylene tube. An equal volume of isopropanol (Sigma, St. Louis, Mo.) was added and the samples were mixed and incubated overnight at −20° C. The samples were centrifuged for 30 min at 10,000 g, the supernatant was removed and the RNA pellet was resuspended in DNAse/RNAse-free water. Samples were frozen at −80° C. for at least 2 hours, thawed on wet ice, and diluted for quantitation.

myocardial injury = test: Assay C: histopathologic analysis, semi-quantitative myocardial injury score 0 to 4; assay type: in vivo, Male Sprague-Dawley rats; conditions: for Myocardial injury / vascular inflammatory damage (histopathology): aldosterone + salt, 7, 14, 30 days, eplerenone 100 mg/kg/day; for Myocardia 1 Necrosis (0-4): eplerenone dose 100 mg/kg/day
Method: The procedure of Assay B was expanded upon in a further study. […] Myocardial tissue from animals in each treatment group was examined after 7, 14, or 30 days of treatment. […] Lesions were preceded by the expression and progressive upregulation of proinflammatory molecules. […] Prior to surgery the animals were individually weighed and placed in one of the following groups: […] Potassium chloride supplementation was added to the saline solution in order to prevent the potential hypokalemia associated with aldosterone excess. […] Louis, Mo.) was inserted subcutaneously at the nape of the neck. Aldosterone was administered at a dose of 0.75 µg/hour. […] Animals were sacrificed from each group (n=8-13) after 7, 14, or 30 days of treatment. Following exsanguination, hearts and kidneys were isolated, removed, rinsed in cold phosphate-buffered saline, and blotted dry. […] The equatorial regions of the heart were routinely processed into paraffin with an automated tissue processor (Hypercenter XP, Shandon/Lipshaw Inc., Pittsburgh, Pa.) and embedded into fresh paraffin apical side down (Shandon Embedding Center, Shandon/Lipshaw Inc.). Five and 10 µm sections were cut from each block of tissue using a Leica RM2035 rotary microtome (Leica Inc., Houston, Tex.) and mounted on Superfrost/Plus microscope slides (Fisher Scientific, Pittsburgh, Pa.). Ten […]m sections were stained with the collagen specific stain, Picrosirius Red F3BA (Saturated Picric Acid (Sigma Chemical, St. […] Waterbury, Conn.) (6). Mounted tissues were hydrated with water. […] Slides were coverslipped with #1 cover glass using Permount Histological Mounting Media (Fisher Scientific). Two slides mounted with 5 µm sections were cut for each animal. One slide was processed for H&E staining and one for Periodic Acid Schiff (PAS) staining. The H&E and PAS were used for pathological scoring of the hearts. Semi-quantification of myocardial injury was performed as described previously with minor modifications (7). Briefly, a scale from 0 to 4 was used to score the level of myocardial injury. A score of 0 represented no damage. […] Myocardial necrosis was defined as the presence of necrotic changes in cardiomyocytes such as nuclear pyknosis or karyolysis, non-contracting marginal wavy fibers and hypereosinophilia of the cytoplasm, or clear evidence of destruction of the cardiomyocyte membrane.

[1] = 7-day protocol, score 0-4, individual rats and group Mean
[2] = group mean, data used for Table 15 (14 days of treatment)
[3] = group mean, data used for Table 16 (30 days of treatment)
[4] = mean ± SEM after 7 days of treatment
[5] = mean ± SEM after 14 days of treatment
[6] = mean ± SEM after 30 days of treatment

Row | SMILES | Osteop-pontin mRNA (AU) (Osteopontin; after 7 days of treatment) | Osteop-pontin mRNA (AU) (Osteopontin; after 14 days of treatment) | Osteop-pontin mRNA (AU) (Osteopontin; after 30 days of treatment) | Myocardial Necrosis (0-4) (myocardial injury; [1]) | Myocardial injury / vascular inflammatory damage (histopathology) (myocardial injury) | Myocardial Necrosis (0-4) (myocardial injury; [2]) | Myocardial Necrosis (0-4) (myocardial injury; [3]) | Myocardia 1 Necrosis (0-4) (myocardial injury; [4]) | Myocardia 1 Necrosis (0-4) (myocardial injury; [5]) | Myocardia 1 Necrosis (0-4) (myocardial injury; [6]) | also measured
1 | COC(=O)[C@@H]1CC2=CC(=O)CC[C@]2(C)[C@@]23O[C@@H]2C[C@@]2(C)[C@@H](CC[C@@]24CCC(=O)O4)[C@H]13 [Eplerenone] | 0.75 AU | 2.94 AU | 2.59 AU | 0.0 | markedly attenuated | 0.5 | 0.0 | 0.0 ± 0.0 | 0.5 ± 0.2 | 0.0 ± 0.0 | Osteopontin (AU) (Osteopontin; data used for Table 17 (7-day protocol), listed as Eplerenone + aldosterone + salt): 0.54 AU and 1.24 AU and 0.52 AU and 0.27 AU and 0.60 AU and 1.13 AU and 0.96 AU and 0.75 AU; Osteopontin (AU) (Osteopontin; data used for Table 18 (14-day protocol), listed as Eplerenone + aldosterone + salt): 4.03 AU and 1.00 AU and 0.77 AU and 8.43 AU and 1.59 AU and 3.97 AU and 3.93 AU and 2.13 AU and 0.72 AU and 4.76 AU and 0.99 AU; Osteopontin (AU) (Osteopontin; data used for Table 19 (30-day protocol), listed as Eplerenone + aldosterone + salt): 1.53 AU and 3.28 AU and 1.98 AU and 8.91 AU and 1.88 AU and 1.97 AU and 1.28 AU and 1.43 AU and 1.01 AU and 54.57 AU; Osteopontin mRNA expression (Osteopontin; myocardium, aldosterone + salt, 7, 14, 30 days, eplerenone 100 mg/kg/day): inhibition; also recorded: significantly reduced; Myocardial Necrosis (0-4) (myocardial injury; individual rats, data used for Table 15 (14 days of treatment), incl. rat marked * excluded from statistics, listed as Eplerenone + aldosterone + salt): 1.0 (3×) and 0.0 (7×) and 2.0; Myocardial Necrosis (0-4) (myocardial injury; individual rats, data used for Table 16 (30 days of treatment), incl. rat marked * excluded from statistics): 0.0
2 | C[C@]12CCC(=O)C=C1CC[C@@H]1[C@@H]2[C@@H](O)C[C@]2(C=O)[C@@H](C(=O)CO)CC[C@@H]12 [Aldosterone] | 1.91 AU | 6.56 AU | 13.27 AU | 0.0 | focal arterial and myocardial alterations were observed starting at 14 days; also recorded: induced vascular inflammation and cardiac tissue damage | 0.8 | 2.0 | 0.0 ± 0.0 | 0.8 ± 0.3 | 2.0 ± 0.4 | Osteopontin expression upregulation (Osteopontin; after 14 days of aldosterone + salt treatment): ~6 fold; Osteopontin expression upregulation (Osteopontin; after 30 days of aldosterone + salt treatment): ~13 fold; Osteopontin (AU) (Osteopontin; data used for Table 17 (7-day protocol), listed as Aldosterone + salt): 1.84 AU and 0.84 AU and 0.95 AU and 1.05 AU and 1.08 AU and 4.92 AU and 3.29 AU and 1.32 AU and 28.64 AU; Osteopontin (AU) (Osteopontin; data used for Table 18 (14-day protocol), listed as Aldosterone + salt): 8.14 AU and 1.02 AU and 6.19 AU and 4.06 AU and 12.04 AU and 2.35 AU and 8.25 AU and 10.41 AU and 81.29 AU; Osteopontin (AU) (Osteopontin; data used for Table 19 (30-day protocol), listed as Aldosterone + salt): 13.13 AU and 11.43 AU and 13.78 AU and 7.97 AU and 18.44 AU and 14.88 AU; Myocardial Necrosis (0-4) (myocardial injury; individual rats, data used for Table 15 (14 days of treatment), incl. rat marked * excluded from statistics, listed as Aldosterone + salt): 0.0 (7×) and 1.0 (3×) and 3.0 (3×); Myocardial Necrosis (0-4) (myocardial injury; individual rats, data used for Table 16 (30 days of treatment), incl. rat marked * excluded from statistics, listed as Aldosterone + salt): 1.5 and 2.5 and 3.0 (2×) and 2.0 (2×) and 0.5 and 0.3 and 3.5
